For data set [1] the following is noted: cited from earlier work.
In data set [2] the test system is HEp2 cells. Put plainly: Phototoxicity (1.5 J/cm^2), Cell Titer Blue. It is filed as cell-based. The note with it: Homo sapiens, HEp-2, light or radiation study, light dose 1.5 J/cm^2. On the procedure:
(§1) Human carcinoma HEp2 cells were obtained from ATCC and maintained in a 75 cm^2 flask (Chemglass) with 1× MEM (Eagle’s minimal essential medium) containing 10% FBS (fetal bovine serum) and 1% antibiotic (penicillin–streptomycin) in a humidified, 5% CO2 incubator at 37 °C. Stock solutions with a concentration of 32 mM in DMSO were prepared for each BODIPY. The stock solution was diluted to the final working concentrations with culture medium. The HEp2 cells were plated at 7500–10,000 cells per well in a Costar 96-well plate and allowed to grow for 24 h. The BODIPY stock solution was diluted to a 200 μM working solution and two-fold serial dilutions were prepared with final concentrations of 200, 100, 50, 25, 12.5, 6.25, and 0 μM. Each BODIPY was incubated for 24 h at 37 °C under 5% CO2. For the dark cytotoxicity experiments, after incubation, excess BODIPY was removed by washing the cells three times with 1× PBS (phosphate-buffered saline) and replacing with media containing 20% Cell Titer Blue (Promega, Madison, WI, USA). The cells were then incubated for additional 24 h at 37 °C under 5% CO2 and the cell toxicity was determined by fluorescence intensity at ex 570/em 615 nm using a FluoStar Optima microplate reader (BMG Labtech, Cary, NC, USA).
For the phototoxicity experiments, after incubation the cells were exposed to a light dose of ~1.5 J/cm^2 generated using a 600 W Quartz Tungsten Halogen lamp (Newport Corporation, Irvine, CA, USA). The cells were exposed for 20 min while the 96-well plate rested on an EchoTherm chilling plate (Torrey Pines Scientific, Carlsbad, CA, USA) set to 5 °C. Following light exposure, the loading media was removed and media containing 20% Cell Titer Blue was added. After incubation for 24 h at 37 °C under 5% CO2, the cell viability was determined as described above.
(In general: Resazurin is reduced to fluorescent resorufin, in cell work by metabolically active cells.)

A further data set is described as follows: Cyclic voltammetry. It is filed as physicochemical. From the text:
Cyclic voltammograms were collected on a Biologic SP-300 potentiostat using a three-electrode setup with a platinum working electrode (2 mm diameter, CH Instruments), platinum counter electrode (2 mm diameter, CH Instruments), and a silver wire pseudo reference-electrode stored in 0.25 M NBu4PF6 in anhydrous acetonitrile and separated from the electrochemical cell by a glass frit. The electrochemical cell was composed of a borosilicate glass scintillation vial with a custom-machined cap. Working electrodes were polished and then pre-treated by cycling between upper and lower boundaries of the electrochemical window for the experiment in a solution containing only the electrolyte. Measurements were taken in a solution of 0.25 M recrystallized NBu4PF6 in dried and degassed anhydrous acetonitrile. BODIPYs were added to 5 mL of electrolyte solution to give a concentration of 1 mM. Each solution also contained 1 mM ferrocene as an internal reference. Solutions were sparged with N2 before each measurement.

Data set [3] is described as follows: UV-vis absorption and emission spectroscopy, relative fluorescence quantum yields. In kind it is physicochemical. To be noted: for bathochromic shift of maximum absorption wavelength upon methylation: experimental; for λabs / λem: room temperature; for Φf (relative fluorescence quantum yield): standard Ru(bpy)Cl2.6H2O (Φf = 0.028) in H2O, λexc = 436 nm. On the procedure:
UV−vis absorption spectra were collected on a Varian Cary 50 Bio spectrophotometer. Emission spectra were obtained on a PerkinElmer LS55 spectrophotometer, at room temperature. Spectrophotometric grade solvents and quartz cuvettes (1 cm path length) were used. Relative fluorescence quantum yields (Φf) were calculated using rhodamine 6G (Φf = 0.86 in methanol) as reference for the neutral BODIPYs and Ru(bpy)Cl2.6H2O (Φf = 0.028 in water) as the standard for the cationic BODIPYs using the following equation: Φx = Φst × Gradx/Gradst × (ηx/ηst)^2, where the ΦX and ΦST are the quantum yields of the sample and standard, GradX and GradST are the gradients from the plot of integrated fluorescence intensity vs. absorbance, and η represents the refractive index of the solvent (x is for the sample and st for the standard).

Data set [4] relates to HEp2 cells. Briefly: Dark cytotoxicity, Cell Titer Blue. It is filed as cell-based. The note with it: Homo sapiens, HEp-2, 24 h incubation, read-out: Dark Toxicity (IC50). On the procedure:
as §1

Where [5] appears, read: vs. Fc^+/Fc, 100 mV/s, acetonitrile, 0.25 M NBu4PF6.
Setting [6] is: vs. Fc^+/Fc, 100 mV/s, acetonitrile, 0.25 M NBu4PF6, PF6^− counterion.

Each structure is given as a SMILES string. Where two headings read alike, the source gives them in different places. Marks after values point to notes of the source that are not given here. Bounds are passed on as bounds.

In general, IC50 refers to the concentration needed to halve the response being measured.

Consider `CC1=CC(C)=[N+]2C1=C(c1cc[n+](C)cc1)c1c(C)cc(C)n1[B-]2(F)F` [4catPy], for which, in data set [1] (CH3CN), the “Stokes Shift” value was 87 nm, the “Φf (fluorescence quantum yield)” value is reported as 0.019, the “ε (molar extinction coefficient)” value is given as 26,000 M^−1 cm ^−1 and the λabs is recorded as 509 nm. For the same molecule, the λem in data set [1] (CH3CN) is on record as 596 nm. Besides, in data set [1] (H2O), the “Stokes Shift” value was 91 nm, the “Φf (fluorescence quantum yield)” value is 0.004, the “ε (molar extinction coefficient)” value was 31,600 M^−1 cm ^−1 and the λabs is on record as 509 nm. The λem in data set [1] (H2O) is given as 600 nm. This molecule returned a half-maximal inhibitory concentration (IC50) with HEp2 cells [2] of over 100 µM. Also, in the data set “Cyclic voltammetry” (setting [5]), the “E1/2red, two-electron reduction to doubly reduced state” value is −1.06 ^e V. In “Cyclic voltammetry” (setting [6]), the E1/2ox result was “+0.89 V”. The “bathochromic shift of maximum absorption wavelength upon methylation” value in data set [3] (acetonitrile) was 8 nm. Further, the IC50 in the data set on HEp2 cells [4] is over 200 µM.

For the molecule `CC1=C(Cl)C(C)=[N+]2C1=C(c1cccc[n+]1C)c1c(C)c(Cl)c(C)n1[B-]2(F)F` [2catPyCl2, 2,6-Dichloro-8-(N-methyl-2-pyridyl)-1,3,5,7-tetramethyl-BODIPY], the IC50 in the data set on HEp2 cells [2] came out at 80 µM. Moreover, in the data set “Cyclic voltammetry”, the “first reduction wave shift positive compared with the unchlorinated BODIPY” value is on record as 220 mV and the “second reduction wave shift positive compared with the unchlorinated BODIPY” value is given as 130 mV. The “anodic peak shift positive compared with the corresponding unchlorinated BODIPY” value in the data set “Cyclic voltammetry” (100 mV/s) was found to be 70 mV. Also, in the data set “Cyclic voltammetry” (setting [5]), the “E1/2red, first one-electron reduction” value is listed as −0.87 V and the “E1/2red, second one-electron reduction” value is reported as −1.16 V. The E1/2ox result in “Cyclic voltammetry” (vs. Fc^+/Fc, value at 10 V/s, acetonitrile, 0.25 M NBu4PF6) is listed as “+1.10 ^b V”. Also, in data set [3] (CH3CN), the “Stokes Shift” value was found to be 17 nm, the “ε (molar extinction coefficient)” value is listed as 19,420 M^−1 cm ^−1, the λabs turned out to be 530 nm and the λem worked out at 547 nm. Moreover, in data set [3] (CH3CN), the “Φf (relative fluorescence quantum yield)” value is on record as 0.17 ^b. In data set [3] (H2O), the “Stokes Shift” value was 22 nm, the “ε (molar extinction coefficient)” value is reported as 21,000 M^−1 cm ^−1, the λabs was found to be 555 nm and the λem is recorded as 577 nm. For the same molecule, the “Φf (relative fluorescence quantum yield)” value in data set [3] (H2O) came out at 0.24. The “Φf (relative fluorescence quantum yield)” value in data set [3] (H2O, listed as 2catPyCl2 (I^−)) is on record as 0.24 ^b. For the same molecule, the “fluorescence enhancement relative to the non-chlorinated pyridinium BODIPY” value in data set [3] (water) was “over 200 fold”. Further, in the data set on HEp2 cells [4], the IC50 was found to be 80 µM.

In the data set with HEp2 cells [2], `CC1=CC(C)=[N+]2C1=C(c1cccc[n+]1C)c1c(C)cc(C)n1[B-]2(F)F` [2catPy, 1,3,5,7-Tetramethyl-8-(N-methyl-2-pyridyl)-BODIPY Iodide] displayed an IC50 of over 100 µM. In the data set “Cyclic voltammetry”, the “first reduction, more negative than the two-electron reduction in 4catPy” value stood at 30 mV; the “oxidation potential shift positive compared with 4catPy and 3catPy” value is given as 100 mV; the “second reduction, more negative than the two-electron reduction in 4catPy” value amounted to 230 mV. In the data set “Cyclic voltammetry” (setting [5]), the “E1/2red, first one-electron reduction” value is −1.09 V and the “E1/2red, second one-electron reduction” value is reported as −1.29 V. Besides, in “Cyclic voltammetry” (setting [6]), the E1/2ox result is given as “~+0.99 ^a V”. Further, in data set [3] (CH3CN), the “Stokes Shift” value turned out to be 24 nm, the “ε (molar extinction coefficient)” value was 65,800 M^−1 cm ^−1, the λabs is recorded as 520 nm and the λem came to 544 nm. The “Φf (relative fluorescence quantum yield)” value in data set [3] (CH3CN) is 0.13 ^b. Besides, in data set [3] (H2O), the “Stokes Shift” value worked out at 22 nm, the “ε (molar extinction coefficient)” value is listed as 52,380 M^−1 cm ^−1, the λabs was 520 nm and the λem is reported as 542 nm. Moreover, the “Φf (relative fluorescence quantum yield)” value in data set [3] (H2O) is recorded as 0.001 ^b. Further, the “bathochromic shift of maximum absorption wavelength upon methylation” value in data set [3] (acetonitrile) came out at 18 nm. Besides, the half-maximal inhibitory concentration (IC50) with HEp2 cells [4] is over 200 µM.

`CC1=C(Cl)C(C)=[N+]2C1=C(c1ccc[n+](C)c1)c1c(C)c(Cl)c(C)n1[B-]2(F)F` [3catPyCl2, 2,6-Dichlo-8-(N-methyl-3-pyridyl)-1,3,5,7-tetramethyl-BODIPY] showed an IC50 in the data set on HEp2 cells [2] of over 100 µM. Moreover, in the data set “Cyclic voltammetry”, the “first reduction wave shift positive compared with the unchlorinated BODIPY” value is on record as 240 mV and the “second reduction wave shift positive compared with the unchlorinated BODIPY” value is listed as 120 mV. Further, the “anodic peak shift positive compared with the corresponding unchlorinated BODIPY” value in the data set “Cyclic voltammetry” (100 mV/s) came to 160 mV. Besides, in “Cyclic voltammetry” (setting [5]), the “E1/2ox (oxidation peak potential only, irreversible wave)” value is recorded as “+1.10 ^c V”; the “E1/2red, first one-electron reduction” value was −1.02 V; the “E1/2red, second one-electron reduction” value is reported as −1.42 V. Also, in data set [3] (CH3CN), the “Stokes Shift” value is given as 20 nm, the “ε (molar extinction coefficient)” value is recorded as 43,160 M^−1 cm ^−1, the λabs stood at 540 nm and the λem amounted to 560 nm. In data set [3] (CH3CN), the “Φf (relative fluorescence quantum yield)” value is on record as 0.23 ^b. Moreover, in data set [3] (H2O), the “Stokes Shift” value is recorded as 24 nm, the “ε (molar extinction coefficient)” value is reported as 35,180 M^−1 cm ^−1, the λabs is recorded as 540 nm and the λem came out at 564 nm. Further, the “Φf (relative fluorescence quantum yield)” value in data set [3] (H2O) amounted to 0.47. Besides, the “Φf (relative fluorescence quantum yield)” value in data set [3] (H2O, listed as 3catPyCl2 (I^−)) is reported as 0.47 ^b. The “fluorescence enhancement relative to the non-chlorinated pyridinium BODIPY” value in data set [3] (acetonitrile) came out at 38 fold. Besides, the “fluorescence enhancement relative to the non-chlorinated pyridinium BODIPY” value in data set [3] (water) is 100 fold. Moreover, the IC50 in the data set with HEp2 cells [4] was determined as 120 µM.

The values above are taken from article PMC9315496, “A Comparison of the Photophysical, Electrochemical and Cytotoxic Properties of meso-(2-, 3- and 4-Pyridyl)-BODIPYs and Their Derivatives” (Sensors (Basel, Switzerland), 2022).
